This is an account of results in PMC9169098 (Proceedings of the National Academy of Sciences of the …, 2022).

The target in data set [1] is T1, BceAB (ATPase sites of BceA) (Bacillus subtilis, UniProt O34697).
T1 sequence (O34697 1-253 limits assumed): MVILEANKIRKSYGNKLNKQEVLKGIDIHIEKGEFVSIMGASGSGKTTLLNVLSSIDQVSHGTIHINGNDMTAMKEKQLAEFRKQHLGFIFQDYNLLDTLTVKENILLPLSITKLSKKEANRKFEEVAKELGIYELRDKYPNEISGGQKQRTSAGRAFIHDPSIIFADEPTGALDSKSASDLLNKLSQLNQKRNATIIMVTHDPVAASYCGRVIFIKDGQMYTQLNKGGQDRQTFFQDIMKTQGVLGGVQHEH
T1 sequence (O34741 1-646 partner): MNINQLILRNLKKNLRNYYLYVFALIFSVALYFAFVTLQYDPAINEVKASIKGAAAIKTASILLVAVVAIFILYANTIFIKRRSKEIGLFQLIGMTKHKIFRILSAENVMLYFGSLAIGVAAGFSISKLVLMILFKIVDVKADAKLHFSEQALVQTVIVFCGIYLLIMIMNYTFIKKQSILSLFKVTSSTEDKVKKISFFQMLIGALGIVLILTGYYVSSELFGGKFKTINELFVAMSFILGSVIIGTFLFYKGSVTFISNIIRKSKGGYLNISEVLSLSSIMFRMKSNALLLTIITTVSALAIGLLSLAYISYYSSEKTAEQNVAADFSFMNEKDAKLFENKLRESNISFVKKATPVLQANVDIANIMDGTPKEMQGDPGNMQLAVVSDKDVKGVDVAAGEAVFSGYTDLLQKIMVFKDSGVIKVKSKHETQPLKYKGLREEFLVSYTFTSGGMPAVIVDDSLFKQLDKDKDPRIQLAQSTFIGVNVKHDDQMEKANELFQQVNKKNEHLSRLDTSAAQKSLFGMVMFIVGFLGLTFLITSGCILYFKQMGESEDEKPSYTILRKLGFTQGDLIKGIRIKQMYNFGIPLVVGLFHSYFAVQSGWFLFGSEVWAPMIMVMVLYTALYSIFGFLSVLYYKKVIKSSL
In words: colorimetric phosphate-release ATPase assay. In kind it is biochemical. To be noted: ATP substrate, 4 mM MgCl2, 37 °C, inhibitor.

A further data set has as its target T2, BceB (B. subtilis, UniProt O34741 1-646).
T2 sequence (looked up): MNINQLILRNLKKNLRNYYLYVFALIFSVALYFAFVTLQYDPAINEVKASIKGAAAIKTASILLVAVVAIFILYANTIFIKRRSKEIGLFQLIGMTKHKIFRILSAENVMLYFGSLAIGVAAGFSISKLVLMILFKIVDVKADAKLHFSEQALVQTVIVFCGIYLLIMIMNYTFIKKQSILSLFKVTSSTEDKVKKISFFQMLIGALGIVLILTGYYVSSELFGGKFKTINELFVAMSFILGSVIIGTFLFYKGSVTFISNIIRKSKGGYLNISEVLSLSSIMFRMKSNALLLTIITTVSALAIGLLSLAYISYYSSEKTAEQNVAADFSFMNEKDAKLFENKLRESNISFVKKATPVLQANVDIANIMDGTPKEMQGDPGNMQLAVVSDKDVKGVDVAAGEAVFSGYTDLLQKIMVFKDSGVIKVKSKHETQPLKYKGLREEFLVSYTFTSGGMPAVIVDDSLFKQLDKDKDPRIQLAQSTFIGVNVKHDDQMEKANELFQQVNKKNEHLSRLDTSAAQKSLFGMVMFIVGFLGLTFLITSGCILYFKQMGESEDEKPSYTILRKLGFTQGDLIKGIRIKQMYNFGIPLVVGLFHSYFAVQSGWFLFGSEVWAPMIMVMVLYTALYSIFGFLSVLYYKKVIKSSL
In words: cryo-EM structure.

The data set “cryo-EM structure” concerns the molecule itself. In words: cryo-EM structure.

As for `Nc1ncnc2c1ncn2[C@@H]1O[C@H](COP(=O)(O)OP(=O)(O)OP(O)(O)=S)[C@@H](O)[C@H]1O` [ATPγS], the “colorimetric phosphate-release ATPase assay” value in data set [1] (substrate analog) is on record as “potently inhibited by common ATPase inhibitors such as the substrate analog ATP? S”. On to `[O]=[V]([OH])([OH])[OH]` [sodium ortho-vanadate], for which the “colorimetric phosphate-release ATPase assay” value in data set [1] is listed as “potently inhibited by common ATPase inhibitors such as the substrate analog ATP? S or sodium ortho-vanadate”.

B1: BceA (natural protein, B. subtilis, UniProt O34697 1-253, looked up)
chain: MVILEANKIRKSYGNKLNKQEVLKGIDIHIEKGEFVSIMGASGSGKTTLLNVLSSIDQVSHGTIHINGNDMTAMKEKQLAEFRKQHLGFIFQDYNLLDTLTVKENILLPLSITKLSKKEANRKFEEVAKELGIYELRDKYPNEISGGQKQRTSAGRAFIHDPSIIFADEPTGALDSKSASDLLNKLSQLNQKRNATIIMVTHDPVAASYCGRVIFIKDGQMYTQLNKGGQDRQTFFQDIMKTQGVLGGVQHEH
In the case of B1, the “stoichiometry N” value with BceB came to 2 BceA per BceB.

B2: BceA E169Q variant (natural protein, B. subtilis, UniProt O34697 1-253, looked up)
chain: MVILEANKIRKSYGNKLNKQEVLKGIDIHIEKGEFVSIMGASGSGKTTLLNVLSSIDQVSHGTIHINGNDMTAMKEKQLAEFRKQHLGFIFQDYNLLDTLTVKENILLPLSITKLSKKEANRKFEEVAKELGIYELRDKYPNEISGGQKQRTSAGRAFIHDPSIIFADQPTGALDSKSASDLLNKLSQLNQKRNATIIMVTHDPVAASYCGRVIFIKDGQMYTQLNKGGQDRQTFFQDIMKTQGVLGGVQHEH
As to B2, the “stoichiometry N” value in “cryo-EM structure” amounted to 2.

What is called stoichiometry N is a count of units in the complex or per binding partner.
